# Source: article PMC5563081, “Modulating Protein-Protein Interactions of the Mitotic Polo-like Kinases to Target Mutant KRAS” (Cell Chemical Biology, 2017)
# Assays:
# [1] = test system: HCT116 (KRAS G13D) xenografts; assay: Xenograft study, tumour volume; assay type: in vivo, mouse; conditions: for Group Mean at Day 15 (tumour volume): HCT116 xenograft, vehicle 778
# Procedure: Male athymic mice were purchased from Harlan (UK) and acclimatised for 7 days prior to study commencement. Animals were housed in IVC cages (5 per cage) with individual mice identified by tail marking. All animals were allowed free access to a standard certified commercial diet and sanitised water during the study. The holding room was maintained under standard conditions: 20-24°C, 40-70% humidity and a 12h light/dark cycle. All experiments were performed under approved ethical and procedural guidelines.
# Tumours were established by sub-cutaneous implantation of 2 x 10^6 HCT116 cells suspended in 50% Matrigel into the flanks of a cohort of mice. When a sufficient number of mice had developed tumours of approximately 100mm3, they were randomly assigned to three groups: Vehicle, 50mg/kg Poloppin-II or 200mg/kg Poloppin-II, with 10 mice per group. Mice were treated orally according to their treatment group once every three days. Tumour volume was measured three times per week with calipers. Body weight was measured three times per week. In addition to mice assigned to tumour volume efficacy arm of the study, 16 mice with established HCT116 xenografts were assigned to either Vehicle or 200mg/kg oral dosing groups, with 8 mice per group. 24 hours after a single dose, mice were euthanised, tumours removed, snap frozen and 30-50microgram of lysates were analysed by Western blotting on 4-12% Bis-Tris acrylamide gels, and transferred using the Invitrogen iBlot dry system. Phospho-Histone H3 was detected using Abcam antibody ab5176, beta-actin with Sigma antibody a5316. […] HRP was visualised with ECL-Plus (GE Healthcare).
# [2] = biological target: T1, NanoLuc-PLK2 fusion protein (Homo sapiens, UniProt Q9NYY3); assay: NanoLuc thermal shift assay; assay type: cell-based; conditions: compound at 100 μM
# T1 construct: NanoLuc fused to the N-termini of full-length human PLK1, PLK2, PLK3, PLK4 or p38α MAPK; expressed in transfected cells; host or cells: HeLa, transient, digitonin-permeabilised
# T1 sequence (Q9NYY3 whole entry, the tested form may be a part): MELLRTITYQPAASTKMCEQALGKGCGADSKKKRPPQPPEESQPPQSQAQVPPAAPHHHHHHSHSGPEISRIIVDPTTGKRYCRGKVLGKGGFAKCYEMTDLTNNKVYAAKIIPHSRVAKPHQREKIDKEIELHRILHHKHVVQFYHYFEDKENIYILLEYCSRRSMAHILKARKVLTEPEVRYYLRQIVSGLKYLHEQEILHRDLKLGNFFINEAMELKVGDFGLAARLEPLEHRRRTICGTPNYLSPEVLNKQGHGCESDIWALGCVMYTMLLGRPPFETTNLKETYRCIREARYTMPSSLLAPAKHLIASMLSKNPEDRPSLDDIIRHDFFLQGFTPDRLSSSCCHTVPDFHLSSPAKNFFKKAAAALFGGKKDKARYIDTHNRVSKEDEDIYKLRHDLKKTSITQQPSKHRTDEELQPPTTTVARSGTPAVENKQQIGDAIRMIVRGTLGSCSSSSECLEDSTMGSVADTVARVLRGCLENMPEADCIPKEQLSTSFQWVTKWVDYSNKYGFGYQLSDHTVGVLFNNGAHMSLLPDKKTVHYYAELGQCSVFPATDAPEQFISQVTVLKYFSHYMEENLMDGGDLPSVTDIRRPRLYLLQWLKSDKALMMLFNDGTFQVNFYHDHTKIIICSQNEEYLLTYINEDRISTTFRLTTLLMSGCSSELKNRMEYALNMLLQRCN
# Procedure: (§1) HeLa cells were transfected with plasmids encoding NanoLuc fused to the N-termini of full-length human PLK1, PLK2, PLK3, PLK4 or p38α MAPK. Twenty-four h after transfection, the thermal stability of the fusion proteins was tested using a modified version of the assay protocol supplied by Promega. Briefly, cells were harvested by tyrpsinisation and centrifugation, counted, and resuspended to 200,000 cells/ml in 3mls of serum-free OptiMEM media. Cells were then permeabilised using with 50ug/ml digitonin in DMSO for 5 min and incubated with test compounds at 100uM, plus protease inhibitor cocktail (Promega G6521), in a final concentration of 5% DMSO for 1 h at 37°C. After incubation, 100 μl/well of cells were aliquoted into a 96-well, thin-walled PCR plate and then heated for 3 minutes using a pre-warmed MJ Tetrad DNA Engine set to run a temperature gradient of 42 to 66°C. The plates were then cooled to room temperature for 10 min, and then 80μl of each sample was transferred to a white-walled 96-well Nunc plate before NanoBRET™ NanoGlo Substrate diluted in Opti-MEM was added. NanoLuc enzyme activity was read out within 10 min using a BMG Clariostar plate reader.
# [3] = biological target: T2, NanoLuc-PLK3 fusion protein (Homo sapiens, UniProt Q9H4B4); assay: NanoLuc thermal shift assay; assay type: cell-based; conditions: compound at 100 μM
# T2 construct: NanoLuc fused to the N-termini of full-length human PLK1, PLK2, PLK3, PLK4 or p38α MAPK; expressed in transfected cells; host or cells: HeLa, transient, digitonin-permeabilised
# T2 sequence (Q9H4B4 whole entry, the tested form may be a part): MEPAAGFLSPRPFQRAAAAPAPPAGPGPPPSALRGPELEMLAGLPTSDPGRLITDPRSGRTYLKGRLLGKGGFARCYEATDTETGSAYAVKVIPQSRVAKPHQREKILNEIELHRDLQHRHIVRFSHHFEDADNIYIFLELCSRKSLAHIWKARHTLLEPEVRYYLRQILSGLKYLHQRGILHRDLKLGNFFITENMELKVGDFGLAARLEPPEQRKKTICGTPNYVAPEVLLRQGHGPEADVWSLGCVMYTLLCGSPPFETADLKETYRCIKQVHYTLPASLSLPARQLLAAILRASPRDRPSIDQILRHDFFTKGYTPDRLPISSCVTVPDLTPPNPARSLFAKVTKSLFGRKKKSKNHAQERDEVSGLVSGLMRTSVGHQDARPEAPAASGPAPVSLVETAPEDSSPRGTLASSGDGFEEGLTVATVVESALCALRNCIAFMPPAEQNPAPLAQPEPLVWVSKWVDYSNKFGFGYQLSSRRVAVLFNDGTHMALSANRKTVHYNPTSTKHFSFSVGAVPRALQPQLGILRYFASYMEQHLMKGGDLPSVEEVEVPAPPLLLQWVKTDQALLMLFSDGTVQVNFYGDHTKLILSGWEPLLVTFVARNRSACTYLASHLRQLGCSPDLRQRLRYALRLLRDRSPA
# Procedure: as §1
# MEFs KRAS MUT p53 MUT = assay: Cell viability in MEFs, KRAS MUT p53 MUT; assay type: cell-based; conditions: Mus musculus
# Procedure: KrasWT mouse embryonic fibroblasts (MEFs) were derived from conditional LSL-Trp53^R172H/+ embryos. LSL-Trp53^R172H/+, LSL-Kras^G12D/+ ([Hingorani et al., 2005]) strains were interbred to obtain LSL-Kras^G12D/+, LSL-Trp53^R172H/+ Kras^G12D embryos for MEF preparation. Briefly, MEFs were derived from E13.5 embryos after decapitation and evisceration. Finely minced tissue was passed through a 16-G needle two or three times before dissociated cells were cultured in DMEM with 10% FBS. Cre-mediated recombination to activate the Kras^G12D allele was induced via addition of 500nM 4-OH Tamoxifen to the culture media overnight.
smiles,measurement,setting,value
CN(C)CCNC(=O)c1ccc(-c2ccc(-c3ccc(Cl)cc3)n2-c2ccccc2C(F)(F)F)cc1 [Poloppin-II],growth of xenografted tumors,"[1]; 50 mg/kg oral, HCT116 KRAS G13D",reduced the growth of xenografted tumors
same,Group Mean at Day 15 (tumour volume),[1]; 50mg/kg oral every three days,415 mm³
same,Group Mean at Day 15 (tumour volume),"[1]; 200mg/kg oral, treatment suspended after seven days",371 mm³
O=C(O)CCc1ccc(-c2ccc(Br)cc2)n1-c1ccccc1C(F)(F)F [Poloppin],thermal stability of NanoLuc-PLK2,[2],increases the thermal stability
same,thermal stability of NanoLuc-PLK3,[3],increases the thermal stability
same,GI50,MEFs KRAS MUT p53 MUT; MEFs KRAS MUT p53 MUT,49.5 ± 1.05 µM
same,GI50,MEFs KRAS MUT p53 MUT; MEFs KRAS MUT p53 MUT+4OHT,17.6 ± 1.22 µM
